# Measurements from a polymer gas permeability compilation.
Structure (SMILES),H2 permeability [Barrer],N2 permeability [Barrer],O2 permeability [Barrer],CH4 permeability [Barrer],CO2 permeability [Barrer]
*c1ccc(Cc2ccc(N3C(=O)c4ccc(Sc5ccc6c(c5)C(=O)N(*)C6=O)cc4C3=O)cc2)cc1 (repeat unit),5.43,0.027,0.246,,
*C(=C(*)c1cccc(O)c1)c1ccc(C(C)(C)C)cc1 (repeat unit),1700,210,580,490,3000
*C(=O)c1ccc(C2(c3ccc(C(=O)c4ccc(Oc5ccc(C(=O)c6ccc(Oc7ccc(*)cc7)cc6)cc5)cc4)cc3)OC(=O)c3ccccc32)cc1 (repeat unit),9.2,0.0986,0.68,0.1,3.1
*Oc1ccc(-c2c(-c3ccc(C#N)cc3)c(-c3ccc(C#N)cc3)c(-c3ccc4c(c3)Oc3c(C#N)c(*)c(*)c(C#N)c3O4)c(-c3ccc(C#N)cc3)c2-c2ccc(C#N)cc2)cc1O* (repeat unit),734,52,205,93,1300
*Oc1cc2c(cc1O*)C1(c3cc(C(C)(C)C)ccc3-2)c2cc(C(C)(C)C)ccc2-c2cc3c(cc21)Oc1c(C#N)c(*)c(*)c(C#N)c1O3 (repeat unit),5150,815,2310,1700,13200
*Oc1ccc(C(=O)c2ccc(Oc3c(C)cc(-c4cc(C)c(*)c(C)c4)cc3C)cc2)cc1 (repeat unit),,0.971,4.76,1.02,19.4
*c1ccc(C2(c3ccc(N4C(=O)c5ccc(C(c6ccc7c(c6)C(=O)N(*)C7=O)(C(F)(F)F)C(F)(F)F)cc5C4=O)cc3)c3cc(C(C)(C)C)ccc3-c3ccc(C(C)(C)C)cc32)cc1 (repeat unit),,14.1,,14.6,271
*c1ccc2c(c1)C(=O)N(c1ccc(Oc3ccc(N4C(=O)c5ccc(-c6nc7ccc(Cc8ccc9nc(*)oc(=O)c9c8)cc7c(=O)o6)cc5C4=O)cc3)cc1)C2=O (repeat unit),2.56,,,,0.26
*C(=C(*)c1ccc2c(c1)C(C)(C)c1ccccc1-2)c1ccc(C(C)(C)C)cc1 (repeat unit),6300,2500,3500,6600,11000
*c1c(C)cc(Cc2cc(C)c(N3C(=O)c4ccc(-c5ccc6c(c5)C(=O)N(*)C6=O)cc4C3=O)c(C)c2)cc1C (repeat unit),,0.913,4.73,0.818,22.4
*c1ccc(Cc2ccc(N3C(=O)c4ccc(C(c5ccc6c(c5)C(=O)N(*)C6=O)(C(F)(F)F)C(F)(F)F)cc4C3=O)c(C)c2)cc1C (repeat unit),,0.406,2.51,0.198,8.75
*Oc1ccc(-c2ccc(Oc3c(F)c(F)c(COC(C4CCCC(C(OCc5c(F)c(F)c(*)c(F)c5F)(C(F)(F)F)C(F)(F)F)C4)(C(F)(F)F)C(F)(F)F)c(F)c3F)cc2)cc1 (repeat unit),20,0.61,2.5,0.34,8.2
*c1cc2c(cc1O)C1(CC2(C)C)CC(C)(C)c2cc(N3C(=O)C4C5C=CC(C6C(=O)N(*)C(=O)C56)C4C3=O)c(O)cc21 (repeat unit),206,5.5,23,4.6,130
*Oc1ccc(-c2c(-c3ccc(C)cc3)c(-c3ccc(C)cc3)c(-c3ccc4c(c3)Oc3c(C#N)c(*)c(*)c(C#N)c3O4)c(-c3ccc(C)cc3)c2-c2ccc(C)cc2)cc1O* (repeat unit),856,60,256,132,1630
*c1c(C)cc(C)c(N2C(=O)c3ccc(S(=O)(=O)c4ccc5c(c4)C(=O)N(*)C5=O)cc3C2=O)c1C (repeat unit),47.1,1.02,5.69,,
*c1ccc(C2(c3ccc(N4C(=O)c5ccc(C(c6ccc7c(c6)C(=O)N(*)C7=O)(C(F)(F)F)C(F)(F)F)cc5C4=O)cc3)c3ccccc3-c3ccccc32)cc1 (repeat unit),,3.3,,1.96,58.9
*c1ccc2c(c1)-c1nc3ccc(-c4ccc5c(c4)nc4n5C(=O)c5cc(C(c6ccc7c(c6)C(=O)N(c6cc(C(c8ccc(O)c(N9C(=O)c%10ccc(C(*)(C(F)(F)F)C(F)(F)F)cc%10C9=O)c8)(C(F)(F)F)C(F)(F)F)ccc6O)C7=O)(C(F)(F)F)C(F)(F)F)ccc5-4)cc3n1C2=O (repeat unit),,0.53,3.2,,15
*c1ccc(Cc2ccc(N3C(=O)c4ccc(S(=O)(=O)c5ccc6c(c5)C(=O)N(*)C6=O)cc4C3=O)cc2)cc1 (repeat unit),6.32,0.032,0.296,,
*c1cccc(-c2nc3cc(-c4ccc5[nH]c(*)nc5c4)ccc3[nH]2)n1 (repeat unit),1.38,,0.045,,
*/C(C)=C(/*)[Si](C)(C)C(C)C (repeat unit),1650,170,460,360,2200

Structure (SMILES),H2 permeability [Barrer],N2 permeability [Barrer],O2 permeability [Barrer],CH4 permeability [Barrer],CO2 permeability [Barrer]
*OC1OC(COC(=O)NC(C)(C)C)C(*)C(OC(C)=O)C1OC(C)=O (repeat unit),31,0.98,4.3,1.4,28.5
*c1ccc(Oc2ccc(-c3ccc(-c4ccc(-c5ccc(Oc6ccc(N7C(=O)c8ccc(C(c9ccc%10c(c9)C(=O)N(*)C%10=O)(C(F)(F)F)C(F)(F)F)cc8C7=O)cc6)c(C(F)(F)F)c5)cc4)cc3)cc2C(F)(F)F)cc1 (repeat unit),,3.11,17.1,1.51,36.6
*=CC1CC(C=*)C2C(=O)N(C34CC5CC(CC(C5)C3)C4)C(=O)C12 (repeat unit),12.8,0.5,1.59,0.58,8.39
*OCC(*)CCl (repeat unit),,0.24,,0.657,8
*Nc1ccc(C(C)(C)c2ccc(NC(=O)c3ccc(Oc4cc(C(C)(C)C)c(Oc5ccc(C(*)=O)cc5)cc4C(C)(C)C)cc3)cc2)cc1 (repeat unit),,0.46,3.11,0.47,13
*CC(*)C(=O)OCC(F)(F)C(F)(F)C(F)(F)C(F)(F)C(F)(F)C(F)(F)C(F)(F)F (repeat unit),300,54,135,57,520
*Nc1ccc(*)cc1 (repeat unit),3.66,0.0165,0.135,0.0094,0.67
*C(C)=C(*)CCCCCC (repeat unit),140,23,60,64,230
*c1ccc(Cc2ccc(N3C(=O)c4ccc(Oc5ccc6c(c5)C(=O)N(*)C6=O)cc4C3=O)cc2)cc1 (repeat unit),5.62,0.028,0.261,,
*CCSS* (repeat unit),1.57,,0.288,,3.14
*c1c(C)c(C)c(N2C(=O)c3ccc(Oc4cc(C(C)(C)C)ccc4Oc4ccc5c(c4)C(=O)N(*)C5=O)cc3C2=O)c(C)c1C (repeat unit),91,2.55,12,3.1,71
*C(=O)n1c(*)nc2cc3nc4c5ccc(*)c6c(*)ccc(c(=O)n4c3cc21)c65 (repeat unit),,0.00259,0.021,0.0017,0.12
*CC(*)c1ccc(S(=O)(=O)[O-])cc1 (repeat unit),10.8,0.101,0.845,0.119,4.15
*c1ccc(N2C(=O)c3ccc(C(=O)Oc4ccc(C(c5ccc(OC(=O)c6ccc7c(c6)C(=O)N(*)C7=O)cc5)(C(F)(F)F)C(F)(F)F)cc4)cc3C2=O)cc1 (repeat unit),4.36,0.0355,0.251,,
*CC(*)c1ccccc1 (repeat unit),26.1,0.53,2.9,0.785,12.4
*c1cccc(-c2nc3cc(-c4ccc5[nH]c(*)nc5c4)ccc3[nH]2)c1 (repeat unit),0.615,0.0048,0.015,0.0018,0.16
*CC(*)OC(C)=O (repeat unit),9.19,,0.488,,
*c1ccc(-c2ccc(Oc3ccc4c(c3)C3(CC4(C)C)CC(C)(C)c4ccc(Oc5ccc(-c6ccc(N7C(=O)c8ccc(Oc9ccc(C(C)(C)c%10ccc(Oc%11ccc%12c(c%11)C(=O)N(*)C%12=O)cc%10)cc9)cc8C7=O)cc6)cc5C(F)(F)F)cc43)c(C(F)(F)F)c2)cc1 (repeat unit),,1.02,9.92,0.35,23.9
*Nc1ccc(C(c2ccc(NC(=O)c3cc(C(*)=O)cc(-c4ccccc4)c3)cc2)(C(F)(F)F)C(F)(F)F)cc1 (repeat unit),42,1.2,5.5,0.78,21
*Oc1ccc(C2(c3ccc(Oc4ccc(S(=O)(=O)c5ccc(*)cc5)cc4)c(C)c3)OC(=O)c3ccccc32)cc1C (repeat unit),10.8,0.11,0.868,0.0727,3.12
